# According to ChEMBL document CHEMBL5291721, “A preclinical secondary pharmacology resource illuminates target-adverse drug reaction associations of marketed drugs” (Nat Commun, 2023):
# Legend:
# Adenosine receptor A3 = target: T1, Adenosine receptor A3 (Homo sapiens, UniProt P0DMS8)
# T1 sequence (P0DMS8 whole entry): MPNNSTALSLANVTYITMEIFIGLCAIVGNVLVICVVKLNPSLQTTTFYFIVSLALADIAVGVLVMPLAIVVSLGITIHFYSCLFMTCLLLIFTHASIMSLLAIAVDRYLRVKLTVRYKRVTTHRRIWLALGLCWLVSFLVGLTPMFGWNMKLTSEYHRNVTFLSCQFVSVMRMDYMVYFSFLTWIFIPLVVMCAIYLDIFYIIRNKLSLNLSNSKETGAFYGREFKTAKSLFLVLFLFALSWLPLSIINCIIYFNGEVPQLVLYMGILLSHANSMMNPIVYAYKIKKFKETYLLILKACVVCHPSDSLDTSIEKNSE
# [1] = target: Vascular endothelial growth factor receptor 2 (Homo sapiens, UniProt P35968); format: functional
# Chain of Vascular endothelial growth factor receptor 2 (P35968 whole entry): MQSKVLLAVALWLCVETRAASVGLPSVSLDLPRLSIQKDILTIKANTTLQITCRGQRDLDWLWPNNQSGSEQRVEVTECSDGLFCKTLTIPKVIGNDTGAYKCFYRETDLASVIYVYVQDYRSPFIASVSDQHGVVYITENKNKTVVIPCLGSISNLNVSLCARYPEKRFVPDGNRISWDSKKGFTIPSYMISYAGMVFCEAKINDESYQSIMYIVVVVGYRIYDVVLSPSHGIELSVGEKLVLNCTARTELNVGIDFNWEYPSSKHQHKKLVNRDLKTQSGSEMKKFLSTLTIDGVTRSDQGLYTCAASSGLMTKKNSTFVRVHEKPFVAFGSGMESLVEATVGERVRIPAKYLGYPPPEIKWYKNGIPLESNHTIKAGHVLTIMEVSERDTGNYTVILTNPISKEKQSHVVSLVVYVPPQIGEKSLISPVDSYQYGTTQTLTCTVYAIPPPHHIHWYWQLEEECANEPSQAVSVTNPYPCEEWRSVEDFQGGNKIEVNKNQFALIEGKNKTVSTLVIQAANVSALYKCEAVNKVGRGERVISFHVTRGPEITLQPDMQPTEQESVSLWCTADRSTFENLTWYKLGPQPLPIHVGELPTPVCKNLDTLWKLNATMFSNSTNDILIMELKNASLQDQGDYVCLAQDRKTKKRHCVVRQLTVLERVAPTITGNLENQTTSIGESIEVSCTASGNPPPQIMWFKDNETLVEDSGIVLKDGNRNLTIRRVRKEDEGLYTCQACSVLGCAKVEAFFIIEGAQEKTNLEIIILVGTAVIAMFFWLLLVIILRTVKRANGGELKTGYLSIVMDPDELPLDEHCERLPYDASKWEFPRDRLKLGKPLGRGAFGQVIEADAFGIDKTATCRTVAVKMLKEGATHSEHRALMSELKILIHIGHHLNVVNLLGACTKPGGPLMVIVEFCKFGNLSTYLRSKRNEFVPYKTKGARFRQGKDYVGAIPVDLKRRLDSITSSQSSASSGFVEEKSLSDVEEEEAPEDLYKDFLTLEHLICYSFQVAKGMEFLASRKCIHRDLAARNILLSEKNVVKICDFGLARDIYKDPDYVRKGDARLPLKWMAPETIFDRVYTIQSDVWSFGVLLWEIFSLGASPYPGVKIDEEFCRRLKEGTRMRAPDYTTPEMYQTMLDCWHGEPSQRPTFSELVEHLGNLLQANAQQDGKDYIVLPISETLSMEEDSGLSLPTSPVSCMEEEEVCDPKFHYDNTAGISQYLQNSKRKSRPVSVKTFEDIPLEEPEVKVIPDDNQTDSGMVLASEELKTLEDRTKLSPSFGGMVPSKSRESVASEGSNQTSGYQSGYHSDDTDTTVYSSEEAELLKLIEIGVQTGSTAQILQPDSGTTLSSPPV
# [2] = target: T2, Alpha-1A adrenergic receptor (Homo sapiens, UniProt P35348); format: functional, cell-based
# T2 sequence (P35348 whole entry): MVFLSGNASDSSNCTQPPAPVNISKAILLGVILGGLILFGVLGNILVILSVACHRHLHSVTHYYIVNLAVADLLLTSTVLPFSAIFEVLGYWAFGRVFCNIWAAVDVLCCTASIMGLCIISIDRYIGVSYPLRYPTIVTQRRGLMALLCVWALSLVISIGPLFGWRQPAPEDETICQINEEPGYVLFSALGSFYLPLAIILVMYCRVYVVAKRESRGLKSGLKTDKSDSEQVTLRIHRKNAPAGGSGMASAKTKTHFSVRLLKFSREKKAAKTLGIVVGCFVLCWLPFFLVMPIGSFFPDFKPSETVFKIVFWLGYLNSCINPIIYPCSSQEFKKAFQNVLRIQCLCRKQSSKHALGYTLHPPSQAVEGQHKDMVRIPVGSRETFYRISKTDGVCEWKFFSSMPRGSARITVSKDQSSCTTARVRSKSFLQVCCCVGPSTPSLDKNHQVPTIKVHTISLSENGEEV
# [3] = target: T3, Amine oxidase [flavin-containing] A (Homo sapiens, UniProt P21397); format: functional
# T3 sequence (P21397 whole entry): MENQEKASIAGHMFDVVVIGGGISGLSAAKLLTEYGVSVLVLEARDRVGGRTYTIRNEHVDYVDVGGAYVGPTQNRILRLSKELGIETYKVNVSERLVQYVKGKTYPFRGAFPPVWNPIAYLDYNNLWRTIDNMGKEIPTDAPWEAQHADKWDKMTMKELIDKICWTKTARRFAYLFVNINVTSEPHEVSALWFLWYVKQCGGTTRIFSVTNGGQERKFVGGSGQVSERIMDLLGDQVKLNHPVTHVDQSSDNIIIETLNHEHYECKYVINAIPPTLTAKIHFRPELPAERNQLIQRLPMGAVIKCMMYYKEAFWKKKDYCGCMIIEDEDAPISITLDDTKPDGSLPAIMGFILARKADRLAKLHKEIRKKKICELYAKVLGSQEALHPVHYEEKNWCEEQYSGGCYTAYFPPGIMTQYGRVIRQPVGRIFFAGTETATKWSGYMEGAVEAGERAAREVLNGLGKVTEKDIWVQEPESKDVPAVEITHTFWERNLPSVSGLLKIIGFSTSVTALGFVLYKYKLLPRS
# [4] = target: T4, 5-hydroxytryptamine receptor 1A (Homo sapiens, UniProt P08908)
# T4 sequence (P08908 whole entry): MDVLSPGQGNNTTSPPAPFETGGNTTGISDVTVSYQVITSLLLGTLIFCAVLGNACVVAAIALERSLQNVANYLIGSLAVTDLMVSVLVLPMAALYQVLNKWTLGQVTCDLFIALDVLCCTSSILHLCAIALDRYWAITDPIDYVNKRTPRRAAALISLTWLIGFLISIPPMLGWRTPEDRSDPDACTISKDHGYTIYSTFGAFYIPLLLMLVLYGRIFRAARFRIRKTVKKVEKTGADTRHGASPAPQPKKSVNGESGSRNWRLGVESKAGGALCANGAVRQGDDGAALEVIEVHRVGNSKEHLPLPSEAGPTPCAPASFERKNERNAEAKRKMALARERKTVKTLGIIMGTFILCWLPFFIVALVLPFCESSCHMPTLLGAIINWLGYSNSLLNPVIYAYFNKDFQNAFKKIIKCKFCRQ
# Prothrombin = Prothrombin (Homo sapiens, UniProt P00734); format: functional
# [5] = target: Glutamate receptor ionotropic, NMDA 1 (Rattus norvegicus, UniProt P35439)
# [6] = target: T5, Muscarinic acetylcholine receptor M2 (Homo sapiens, UniProt P08172); format: functional, cell-based
# T5 sequence (P08172 whole entry): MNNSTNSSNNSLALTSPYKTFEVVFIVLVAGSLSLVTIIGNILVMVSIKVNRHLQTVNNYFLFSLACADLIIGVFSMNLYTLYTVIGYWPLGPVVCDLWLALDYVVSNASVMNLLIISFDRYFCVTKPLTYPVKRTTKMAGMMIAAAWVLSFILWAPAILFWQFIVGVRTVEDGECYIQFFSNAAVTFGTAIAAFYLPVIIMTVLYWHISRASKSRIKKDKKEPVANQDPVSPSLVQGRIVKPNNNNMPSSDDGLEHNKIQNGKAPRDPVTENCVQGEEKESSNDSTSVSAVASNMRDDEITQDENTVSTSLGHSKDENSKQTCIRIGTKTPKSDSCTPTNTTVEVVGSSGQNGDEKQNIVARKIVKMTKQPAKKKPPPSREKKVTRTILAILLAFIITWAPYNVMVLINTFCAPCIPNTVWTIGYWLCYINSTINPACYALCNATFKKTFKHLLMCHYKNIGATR
# Vasopressin V1a receptor = Vasopressin V1a receptor (Homo sapiens, UniProt P37288)
# Chain of Vasopressin V1a receptor (P37288 whole entry): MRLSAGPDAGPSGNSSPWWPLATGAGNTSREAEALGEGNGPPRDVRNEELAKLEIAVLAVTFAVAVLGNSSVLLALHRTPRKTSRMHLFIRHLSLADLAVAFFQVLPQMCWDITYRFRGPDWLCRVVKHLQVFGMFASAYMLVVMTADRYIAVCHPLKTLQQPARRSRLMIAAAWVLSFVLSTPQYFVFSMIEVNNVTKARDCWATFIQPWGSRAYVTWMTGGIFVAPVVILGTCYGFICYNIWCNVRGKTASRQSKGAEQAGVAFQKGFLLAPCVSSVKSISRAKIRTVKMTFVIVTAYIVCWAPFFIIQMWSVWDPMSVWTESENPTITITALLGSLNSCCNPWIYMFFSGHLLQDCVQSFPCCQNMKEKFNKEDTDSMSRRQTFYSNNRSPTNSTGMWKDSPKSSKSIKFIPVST
# B2 bradykinin receptor = target: T6, B2 bradykinin receptor (Homo sapiens, UniProt P30411)
# T6 sequence (P30411 whole entry): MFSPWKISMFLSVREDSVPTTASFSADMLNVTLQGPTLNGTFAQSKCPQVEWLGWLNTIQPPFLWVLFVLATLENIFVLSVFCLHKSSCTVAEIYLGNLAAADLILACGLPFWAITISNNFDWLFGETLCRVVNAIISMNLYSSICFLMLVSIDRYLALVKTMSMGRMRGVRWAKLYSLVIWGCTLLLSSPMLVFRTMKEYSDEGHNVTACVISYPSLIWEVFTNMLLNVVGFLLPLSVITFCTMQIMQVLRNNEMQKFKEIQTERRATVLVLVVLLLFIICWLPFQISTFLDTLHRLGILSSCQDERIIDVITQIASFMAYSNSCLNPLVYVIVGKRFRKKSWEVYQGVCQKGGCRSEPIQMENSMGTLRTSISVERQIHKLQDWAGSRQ
# Also: assay procedure not described here.
SMILES,AC50 (Adenosine receptor A3) [µM],AC50 [1] [µM],AC50 [2] [µM],AC50 [3] [µM],AC50 [4] [µM],AC50 (Prothrombin) [µM],AC50 [5] [µM],AC50 [6] [µM],AC50 (Vasopressin V1a receptor) [µM],AC50 (B2 bradykinin receptor) [µM]
C[N+]1(C)[C@@H]2C[C@@H](OC(=O)[C@H](CO)c3ccccc3)C[C@H]1[C@@H]1O[C@@H]12 [METHSCOPOLAMINE],> 30,> 30,> 30,> 30,> 30,> 30,,,,
CC(=O)Oc1c(C)cc(OCC(O)CNC(C)C)c(C)c1C (stereo not given) [METIPRANOLOL],> 30,> 30,> 30,> 30,> 30,> 30,,,,
O=C1CC[C@@]2(O)[C@H]3Cc4ccc(O)c5c4[C@@]2(CCN3CC2CC2)[C@H]1O5 [NALTREXONE],> 30,> 30,> 30,> 30,> 30,> 30,,,,
CC(N/C(=N\C#N)Nc1ccncc1)C(C)(C)C (stereo not given) [PINACIDIL ANHYDROUS],> 30,> 30,> 30,> 30,> 30,> 30,,,,
CCc1ccc(CCOc2ccc(CC3SC(=O)NC3=O)cc2)nc1 (stereo not given) [PIOGLITAZONE],> 30,> 30,> 30,> 30,> 30,> 30,> 10,> 10,> 30,> 30
CC(O)CO (stereo not given) [PROPYLENE GLYCOL],> 30,> 30,> 30,> 30,> 30,> 30,,,,
CN(C)C(=O)Oc1ccc[n+](C)c1 [PYRIDOSTIGMINE],> 30,> 30,> 30,> 30,> 30,> 30,,,,
CC(C)OC(=O)[C@H](C)N[P@](=O)(OC[C@H]1O[C@@H](n2ccc(=O)[nH]c2=O)[C@](C)(F)[C@@H]1O)Oc1ccccc1 [SOFOSBUVIR],> 30,> 30,> 30,> 30,> 30,> 30,,,,
Cc1ccc(O)c2ncccc12 [TILIQUINOL],> 30,> 30,> 30,> 30,> 30,> 30,,,,
CC(=O)OC[C@H]1O[C@@H](n2ccc(=O)[nH]c2=O)[C@H](OC(C)=O)[C@@H]1OC(C)=O [URIDINE TRIACETATE],> 30,> 30,> 30,> 30,> 30,> 30,,,,
CCOC(=O)N[C@@H]1CC[C@@H]2[C@@H](C1)C[C@H]1C(=O)O[C@H](C)[C@H]1[C@H]2/C=C/c1ccc(-c2cccc(F)c2)cn1 [VORAPAXAR],2.43,> 30,> 30,> 30,> 30,> 30,,,,
